Assay results: US9833497B2, “Human originated EGF domain proteins and use of the same” (CHENGDU SOURCEBIO LIMITED-LIABILITY COMPANY, priority 2013, dated 2017)

What was measured:
Type in all cases: cell-based
[1] = tested on: E. coli DH5α; assay: Antibacterial activity: MIC and growth curve against E. coli DH5α in 96-well plate; settings: minimal inhibitory concentration against E. coli DH5α; 96-well plate, 5×10^5 CFU/mL, 37° C., judged after 8 h
Summary of the method: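 MIC taken as lowest protein level with no bacterial growth, tracked by A600 every 30 min during 37 °C, 175 rpm culture. Two-fold protein series 50-12.5 μg/mL final, triplicate wells, against 5×10^5 CFU/mL of LB-washed mid-log cells.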

[2] = tested on: E. coli BL21; assay: MIC against Gram-negative bacteria: E. coli BL21; settings: 5×10^5 CFU/mL; for MIC E. coli BL21: two-fold serial dilution
Summary of the method: (§1)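 Bacteria grown in LB at 37° C with shaking to McFarland 0.5, pelleted and resuspended in fresh LB, then seeded at 5×10^5 CFU/mL per well. Purified recombinant human EGF domain proteins were two-fold serially diluted in triplicate and plates shaken at 37° C, 175 rpm. MIC is the lowest protein concentration with no bacterial growth.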

[3] = tested on: Pseudomonas aeruginosa; assay: MIC against Gram-negative bacteria: Pseudomonas aeruginosa; settings: 5×10^5 CFU/mL; for MIC P. aeruginosa: two-fold serial dilution
Summary of the method: as §1

[4] = tested on: Klebsiella pneumonia; assay: MIC against Gram-negative bacteria: Klebsiella pneumonia; settings: 5×10^5 CFU/mL; for MIC K. pneumonia: two-fold serial dilution
Summary of the method: as §1

[5] = tested on: Enterobacter cloacae; assay: MIC against Gram-negative bacteria: Enterobacter cloacae; settings: 5×10^5 CFU/mL; for MIC E. cloacae: two-fold serial dilution
Summary of the method: as §1

[6] = tested on: Aeromonas hydrophila; assay: MIC against Gram-negative bacteria: Aeromonas hydrophila; settings: 5×10^5 CFU/mL; for MIC A. hydrophila: two-fold serial dilution
Summary of the method: as §1

[7] = tested on: Citrobacter diversus; assay: MIC against Gram-negative bacteria: Citrobacter diversus; settings: 5×10^5 CFU/mL; for MIC C. diversus: two-fold serial dilution
Summary of the method: as §1

[8] = tested on: Moraxella catarrhalis; assay: MIC against Gram-negative bacteria: Moraxella catarrhalis; settings: 5×10^5 CFU/mL; for MIC M. catarrhalis: two-fold serial dilution
Summary of the method: as §1

[9] = tested on: Proteus mirabilis; assay: MIC against Gram-negative bacteria: Proteus mirabilis; settings: 5×10^5 CFU/mL; for MIC P. mirabilis: two-fold serial dilution
Summary of the method: as §1

[10] = tested on: Proteus vulgaris; assay: MIC against Gram-negative bacteria: Proteus vulgaris; settings: 5×10^5 CFU/mL; for MIC P. vulgaris: two-fold serial dilution
Summary of the method: as §1

[11] = tested on: Serratia marcescens; assay: MIC against Gram-negative bacteria: Serratia marcescens; settings: 5×10^5 CFU/mL; for MIC S. marcescens: two-fold serial dilution
Summary of the method: as §1

[12] = E. coli BL21, 10 h cultivation at 37° C.
[13] = P. aeruginosa, 10 h cultivation at 37° C.
[14] = K. pneumonia, 10 h cultivation at 37° C.
[15] = E. cloacae, 10 h cultivation at 37° C.
[16] = A. hydrophila, 10 h cultivation at 37° C.
[17] = C. diversus, 10 h cultivation at 37° C.
[18] = M. catarrhalis, 10 h cultivation at 37° C.
[19] = P. mirabilis, 10 h cultivation at 37° C.
[20] = P. vulgaris, 10 h cultivation at 37° C.
[21] = S. marcescens, 10 h cultivation at 37° C.

PRT1079 (DQCSLNNGGCSHNCSVAPGEGIVCSCPLGMELGPDNHTCQ; listed as Homo sapiens)
MIC [1]: 50 µg/mL
MIC E. coli BL21 ([2]; 10 h cultivation at 37° C.): 12.5 µg/mL
MIC P. aeruginosa ([3]; 10 h cultivation at 37° C.): 50 µg/mL
MIC K. pneumonia ([4]; 10 h cultivation at 37° C.): 12.5 µg/mL
MIC E. cloacae ([5]; 10 h cultivation at 37° C.): 50 µg/mL
MIC A. hydrophila ([6]; 10 h cultivation at 37° C.): 12.5 µg/mL
MIC C. diversus ([7]; 10 h cultivation at 37° C.): 50 µg/mL
MIC M. catarrhalis ([8]; 10 h cultivation at 37° C.): 12.5 µg/mL
MIC P. mirabilis ([9]; 10 h cultivation at 37° C.): 50 µg/mL
MIC P. vulgaris ([10]; 10 h cultivation at 37° C.): 50 µg/mL
MIC S. marcescens ([11]; 10 h cultivation at 37° C.): 12.5 µg/mL

PRT1115 (PTLPCEANPCLNGGTCRAAGGVSECICNARFSGQFCE; listed as Homo sapiens)
MIC [1]: 50 µg/mL
MIC E. coli BL21 ([2]; 10 h cultivation at 37° C.): 25 µg/mL
MIC P. aeruginosa ([3]; 10 h cultivation at 37° C.): 12.5 µg/mL
MIC K. pneumonia ([4]; 10 h cultivation at 37° C.): 50 µg/mL
MIC E. cloacae ([5]; 10 h cultivation at 37° C.): 12.5 µg/mL
MIC A. hydrophila ([6]; 10 h cultivation at 37° C.): 12.5 µg/mL
MIC C. diversus ([7]; 10 h cultivation at 37° C.): 12.5 µg/mL
MIC M. catarrhalis ([8]; 10 h cultivation at 37° C.): 12.5 µg/mL
MIC P. mirabilis ([9]; 10 h cultivation at 37° C.): 12.5 µg/mL
MIC P. vulgaris ([10]; 10 h cultivation at 37° C.): 12.5 µg/mL
MIC S. marcescens ([11]; 10 h cultivation at 37° C.): 12.5 µg/mL

PRT559 (CHCSAEGSLHAACDPRSGQCSCRPRVTGLRCDTCVPGAYNFPYCEA; listed as Homo sapiens)
MIC [1]: 25 µg/mL
MIC against E. coli BL21 ([2]; 96-well plate, 37° C., 10 h): 50 µg/mL
MIC against P. aeruginosa ([3]; 96-well plate, 37° C., 10 h): 25 µg/mL
MIC against K. pneumonia ([4]; 96-well plate, 37° C., 10 h): 12.5 µg/mL
MIC against E. cloacae ([5]; 96-well plate, 37° C., 10 h): 25 µg/mL
MIC against A. hydrophila ([6]; 96-well plate, 37° C., 10 h): 50 µg/mL
MIC against C. diversus ([7]; 96-well plate, 37° C., 10 h): 25 µg/mL
MIC against M. catarrhalis ([8]; 96-well plate, 37° C., 10 h): 12.5 µg/mL
MIC against P. mirabilis ([9]; 96-well plate, 37° C., 10 h): 25 µg/mL
MIC against P. vulgaris ([10]; 96-well plate, 37° C., 10 h): 50 µg/mL
MIC against S. marcescens ([11]; 96-well plate, 37° C., 10 h): 25 µg/mL

PRT834 (DCADSPCCQQVCTNNPGGYECGCYAGYRLSADGCGCE; listed as Homo sapiens)
MIC [1]: 50 µg/mL
MIC (μg/mL) E. coli BL21 [2, 12]: 25 µg/mL
MIC (μg/mL) P. aeruginosa [3, 13]: 12.5 µg/mL
MIC (μg/mL) K. pneumonia [4, 14]: 25 µg/mL
MIC (μg/mL) E. cloacae [5, 15]: 50 µg/mL
MIC (μg/mL) A. hydrophila [6, 16]: 25 µg/mL
MIC (μg/mL) C. diversus [7, 17]: 12.5 µg/mL
MIC (μg/mL) M. catarrhalis [8, 18]: 25 µg/mL
MIC (μg/mL) P. mirabilis [9, 19]: 50 µg/mL
MIC (μg/mL) P. vulgaris [10, 20]: 12.5 µg/mL
MIC (μg/mL) S. marcescens [11, 21]: 25 µg/mL

PRT1129 (PVTNCASSPCQNGGTCLQHTQVSYECLCKPEFTGLTCV; listed as Homo sapiens)
MIC [1]: 50 µg/mL
MIC E. coli BL21 ([2]; 10 h cultivation at 37° C.): 12.5 µg/mL
MIC P. aeruginosa ([3]; 10 h cultivation at 37° C.): 50 µg/mL
MIC K. pneumonia ([4]; 10 h cultivation at 37° C.): 12.5 µg/mL
MIC E. cloacae ([5]; 10 h cultivation at 37° C.): 12.5 µg/mL
MIC A. hydrophila ([6]; 10 h cultivation at 37° C.): 25 µg/mL
MIC C. diversus ([7]; 10 h cultivation at 37° C.): 12.5 µg/mL
MIC M. catarrhalis ([8]; 10 h cultivation at 37° C.): 12.5 µg/mL
MIC P. mirabilis ([9]; 10 h cultivation at 37° C.): 12.5 µg/mL
MIC P. vulgaris ([10]; 10 h cultivation at 37° C.): 12.5 µg/mL
MIC S. marcescens ([11]; 10 h cultivation at 37° C.): 12.5 µg/mL

PRT252 (TAACTNTSCSGHGECVETINNYTCKCDPGFSGLKCE; listed as Homo sapiens)
MIC [1]: 25 µg/mL
MIC (μg/mL) E. coli BL21 [2, 12]: 12.5 µg/mL
MIC (μg/mL) P. aeruginosa [3, 13]: 25 µg/mL
MIC (μg/mL) K. pneumonia [4, 14]: 12.5 µg/mL
MIC (μg/mL) E. cloacae [5, 15]: 25 µg/mL
MIC (μg/mL) A. hydrophila [6, 16]: 12.5 µg/mL
MIC (μg/mL) C. diversus [7, 17]: 25 µg/mL
MIC (μg/mL) M. catarrhalis [8, 18]: 12.5 µg/mL
MIC (μg/mL) P. mirabilis [9, 19]: 25 µg/mL
MIC (μg/mL) P. vulgaris [10, 20]: 12.5 µg/mL
MIC (μg/mL) S. marcescens [11, 21]: 25 µg/mL

PRT414 (DIDECESGIHNCLPDFICQNTLGSFRCRPKLQCKSGFIQDALGNCI; listed as Homo sapiens)
MIC [1]: 12.5 µg/mL
MIC [2, 12]: 12.5 µg/mL
MIC [3, 13]: 12.5 µg/mL
MIC [4, 14]: 12.5 µg/mL
MIC [5, 15]: 12.5 µg/mL
MIC [6, 16]: 25 µg/mL
MIC [7, 17]: 12.5 µg/mL
MIC [8, 18]: 25 µg/mL
MIC [9, 19]: 12.5 µg/mL
MIC [10, 20]: 25 µg/mL
MIC [11, 21]: 50 µg/mL
